Experiments:
Bcl-2-related protein A1 [1] = target: T1, Bcl-2-related protein A1 (Homo sapiens, UniProt Q16548); test: Inhibition of Bfl-1 (unknown origin) assessed as inhibition constant
T1 sequence (Q16548 whole entry): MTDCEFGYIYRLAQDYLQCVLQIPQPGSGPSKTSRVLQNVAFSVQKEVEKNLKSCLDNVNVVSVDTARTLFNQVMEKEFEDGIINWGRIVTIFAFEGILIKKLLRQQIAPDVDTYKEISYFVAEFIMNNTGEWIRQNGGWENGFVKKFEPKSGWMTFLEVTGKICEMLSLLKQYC

[2] = target: T2, Induced myeloid leukemia cell differentiation protein Mcl-1 (Homo sapiens, UniProt Q07820)
T2 sequence (Q07820 whole entry): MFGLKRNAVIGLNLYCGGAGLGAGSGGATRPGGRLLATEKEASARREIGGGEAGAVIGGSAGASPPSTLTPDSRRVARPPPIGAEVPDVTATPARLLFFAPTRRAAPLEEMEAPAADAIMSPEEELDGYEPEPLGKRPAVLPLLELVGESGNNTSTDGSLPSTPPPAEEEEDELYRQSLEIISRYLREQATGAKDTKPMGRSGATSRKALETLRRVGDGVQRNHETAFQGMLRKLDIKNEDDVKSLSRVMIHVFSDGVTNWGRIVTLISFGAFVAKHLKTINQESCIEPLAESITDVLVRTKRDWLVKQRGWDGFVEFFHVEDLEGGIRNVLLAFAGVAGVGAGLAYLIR
Description: Inhibition of Mcl-1 (unknown origin) assessed as inhibition constant

Bcl-2-related protein A1 [3] = target: T1, Bcl-2-related protein A1
Description: Inhibition of recombinant Bfl-1 (1-152) (unknown origin) by TR-FRET assay

Bcl-2-like protein 1 = Bcl-2-like protein 1 (Homo sapiens, UniProt Q07817); test: Inhibition of GST fused Bcl-xL (unknown origin) incubated for 5 min by TR-FRET assay
Chain of Bcl-2-like protein 1 (Q07817 whole entry, the tested form may be a part): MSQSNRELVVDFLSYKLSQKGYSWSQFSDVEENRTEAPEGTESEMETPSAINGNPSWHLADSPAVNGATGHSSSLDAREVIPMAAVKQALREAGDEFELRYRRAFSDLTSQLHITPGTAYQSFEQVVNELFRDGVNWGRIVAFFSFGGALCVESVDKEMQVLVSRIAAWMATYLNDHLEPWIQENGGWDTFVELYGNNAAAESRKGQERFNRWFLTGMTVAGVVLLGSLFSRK

[4] = target: Apoptosis regulator Bcl-2 (Homo sapiens, UniProt P10415); test: Inhibition of GST fused Bcl-2 (unknown origin) incubated for 5 min by TR-FRET assay
Chain of Apoptosis regulator Bcl-2 (P10415 whole entry, the tested form may be a part): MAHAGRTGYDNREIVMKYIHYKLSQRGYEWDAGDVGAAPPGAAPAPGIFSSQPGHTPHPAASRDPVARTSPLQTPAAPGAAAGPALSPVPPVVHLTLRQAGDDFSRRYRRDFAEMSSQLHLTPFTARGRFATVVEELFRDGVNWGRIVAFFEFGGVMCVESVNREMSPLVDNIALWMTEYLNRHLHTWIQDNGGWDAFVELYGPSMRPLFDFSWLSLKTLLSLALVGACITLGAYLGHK

[5] = target: T2, Induced myeloid leukemia cell differentiation protein Mcl-1; test: Inhibition of GST fused Mcl-1 (unknown origin) incubated for 5 min by TR-FRET assay
Bcl-2-like protein 2 = target: T3, Bcl-2-like protein 2 (Homo sapiens, UniProt Q92843); test: Inhibition of GST fused Bcl-w (unknown origin) incubated for 5 min by TR-FRET assay
T3 sequence (Q92843 whole entry): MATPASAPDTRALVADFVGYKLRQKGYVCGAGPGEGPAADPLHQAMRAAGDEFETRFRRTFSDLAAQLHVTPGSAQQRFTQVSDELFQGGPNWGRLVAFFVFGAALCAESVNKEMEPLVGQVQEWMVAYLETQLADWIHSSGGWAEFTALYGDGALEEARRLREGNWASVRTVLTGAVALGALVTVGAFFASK

Bcl-2-related protein A1 [6] = target: T1, Bcl-2-related protein A1; test: Inhibition of Bfl-1 (unknown origin) incubated for 30 min by fluorescence polarization assay
Bcl-2-related protein A1 [7] = target: T1, Bcl-2-related protein A1; test: Inhibition of GST-tagged Bfl-1 (unknown origin) incubated for 60 min by TR-FRET assay

Compound | Ki (Bcl-2-related protein A1 [1]) [µM] | IC50 (Bcl-2-related protein A1 [3]) [µM] | also measured
O=C(O)CSc1cc(NS(=O)(=O)c2ccc(Br)cc2)c2ccccc2c1O | 3.17 | 8.41 | Ki [2]: 1.91 µM
CCOC(=O)CS(=O)(=O)c1nc(-c2ccc(F)cc2)cc(C(F)(F)F)n1 |  |  | IC50 (Bcl-2-like protein 1): > 100 µM; IC50 [4]: > 100 µM; IC50 [5]: > 100 µM; IC50 (Bcl-2-like protein 2): > 100 µM
O=C(O)CSc1cc(NS(=O)(=O)c2cccs2)c2ccccc2c1O |  | 4.61 | 
O=C(O)CSc1cc(NS(=O)(=O)c2ccc(-c3ccccc3)cc2)c2ccccc2c1O | 2.21 |  | Ki [2]: 4.71 µM
COc1ccc(C(c2c(-c3ccccc3)n(O)c3ccccc23)N2CCN(C)CC2)cc1 (stereo unspecified) |  |  | IC50 (Bcl-2-related protein A1 [6]): 0.8 µM; IC50 (Bcl-2-related protein A1 [7]): 1.4 µM
COc1ccc(S(=O)(=O)Nc2cc(SCC(=O)O)c(OC)c3ccccc23)cc1 | > 50 |  | 
COC(=O)CSc1cc(NS(=O)(=O)c2ccc(-c3ccccc3)cc2)c2ccccc2c1OC | > 50 |  | 
COc1c(SCC(=O)O)cc(NS(=O)(=O)c2ccc(C)cc2)c2ccccc12 | > 50 |  | 
CC(C)=CCC[C@]1(C)C=Cc2c(O)c3c(c(CC=C(C)C)c2O1)O[C@]12C(=C[C@@H]4C[C@H]1C(C)(C)O[C@@]2(C/C=C(/C)C(=O)O)C4=O)C3=O [GAMBOGIC ACID] |  | 0.176 | 

From ChEMBL document CHEMBL5335817, “Discovery and optimization of (2-naphthylthio)acetic acid derivative as selective Bfl-1 inhibitor” (Bioorg Med Chem Lett, 2024)
